The values that follow come from ChEMBL document CHEMBL2010729, “Facile synthesis of triterpenoid saponins bearing β-Glu/Gal-(1→3)-β-GluA methyl ester and their cytotoxic activities” (Bioorg Med Chem Lett, 2012).

Test [1] concerns MCF7. Put plainly: Cytotoxicity against human MCF7 cells after 48 hrs by MTT assay. The following applies: MCF7, 48 h. The test is classed as functional, cell-based. (Tetrazolium dyes change colour on reduction, which living cells bring about.)
In another test the test system is HepG2. Put plainly: Cytotoxicity against human HepG2 cells after 48 hrs by MTT assay. The class given is functional, cell-based. The following applies: HepG2, 48 h.
The subject of a further test is K562. Kind of test: Cytotoxicity against human K562 cells after 48 hrs by MTT assay. The test is classed as functional, cell-based. As to conditions: K562, 48 h.
For test [2], the system named is MCF7. Put plainly: Induction of apoptosis in human MCF7 cells assessed as apoptotic cells at 1 uM after 24 hrs using propidium iodide/annexin V staining by flow cytometry (reference value: 3.07 %). The test is classed as functional. Background: A flow cytometer gives signals particle by particle.
In test [3] the test system is MCF7. Put plainly: Induction of apoptosis in human MCF7 cells assessed as cell shrinkage at 1 to 3 uM after 24 hrs by DAPI staining based confocal laser scanning microscopy. The test is classed as functional.
Test [4] relates to MCF7. Kind of test: Induction of apoptosis in human MCF7 cells assessed as membrane blebbing at 1 to 3 uM after 24 hrs by DAPI staining based confocal laser scanning microscopy. The test is classed as functional, cell-based.
Test [5] concerns MCF7. Put plainly: Induction of apoptosis in human MCF7 cells assessed as chromatin condensation at 1 to 3 uM after 24 hrs by DAPI staining based confocal laser scanning microscopy. The class given is functional, cell-based.
Test [6] relates to MCF7. Kind of test: Induction of apoptosis in human MCF7 cells assessed as apoptotic body formation at 1 to 3 uM after 24 hrs by DAPI staining based confocal laser scanning microscopy. The class given is functional, cell-based.
Test [7] has as its system MCF7. Put plainly: Induction of apoptosis in human MCF7 cells assessed as late apoptotic cells at 1 uM after 24 hrs using propidium iodide/annexin V staining by flow cytometry (reference value: 0.11 %). The class given is functional.
Test [8] concerns MCF7. Kind of test: Induction of apoptosis in human MCF7 cells assessed as pre-necrotic cells at 1 uM after 24 hrs using propidium iodide/annexin V staining by flow cytometry (reference value: 0.05 %). The class given is functional.
Test [9] deals with MCF7. Kind of test: Induction of apoptosis in human MCF7 cells assessed as apoptotic cells at 2 uM after 24 hrs using propidium iodide/annexin V staining by flow cytometry (reference value: 3.07 %). The class given is functional.
For test [10], the system named is MCF7. Put plainly: Induction of apoptosis in human MCF7 cells assessed as late apoptotic cells at 2 uM after 24 hrs using propidium iodide/annexin V staining by flow cytometry (reference value: 0.11 %). The test is classed as functional.
Test [11] relates to MCF7. Kind of test: Induction of apoptosis in human MCF7 cells assessed as pre-necrotic cells at 2 uM after 24 hrs using propidium iodide/annexin V staining by flow cytometry (reference value: 0.05 %). The test is classed as functional.
The test system of test [12] is MCF7. Put plainly: Induction of apoptosis in human MCF7 cells assessed as apoptotic cells at 3 uM after 24 hrs using propidium iodide/annexin V staining by flow cytometry (reference value: 3.07 %). The class given is functional.
In test [13] the test system is MCF7. Put plainly: Induction of apoptosis in human MCF7 cells assessed as late apoptotic cells at 3 uM after 24 hrs using propidium iodide/annexin V staining by flow cytometry (reference value: 0.11 %). The class given is functional.
Test [14] relates to MCF7. Kind of test: Induction of apoptosis in human MCF7 cells assessed as pre-necrotic cells at 3 uM after 24 hrs using propidium iodide/annexin V staining by flow cytometry (reference value: 0.05 %). The class given is functional.
The test system of test [15] is MCF7. Put plainly: Induction of apoptosis in human MCF7 cells assessed as increase in ROS production after 24 hrs by fluorescence analysis. The test is classed as functional, cell-based.
Test [16] has as its system MCF7. Kind of test: Induction of apoptosis in human MCF7 cells assessed as loss of mitochondrial membrane potential by JC-1 staining based flow cytometry. The test is classed as functional, cell-based.

Molecules are shown by their SMILES. Calls of active or inactive are those of the source. The rule behind the calls is not given here.

In the case of `COC(=O)[C@H]1O[C@@H](O[C@H]2CC[C@]3(C)[C@H]4CC=C5[C@@H]6[C@@H](C)[C@H](C)CC[C@]6(C(=O)O)CC[C@@]5(C)[C@]4(C)CC[C@H]3C2(C)C)[C@H](O)[C@@H](O[C@@H]2O[C@H](CO)[C@H](O)[C@H](O)[C@H]2O)[C@@H]1O`, the concentration for half-maximal inhibition (IC50) (commonly the point on the concentration scale where inhibition reaches its midpoint) is 22.1 µM with MCF7 [1], 47.1 µM in the test on HepG2 and > 60 µM with K562.
In the case of `COC(=O)[C@H]1O[C@@H](O[C@H]2CC[C@]3(C)[C@H]4CC=C5[C@@H]6CC(C)(C)CC[C@]6(C(=O)O)CC[C@@]5(C)[C@]4(C)CC[C@H]3C2(C)C)[C@H](O)[C@@H](O[C@@H]2O[C@H](CO)[C@@H](O)[C@H](O)[C@H]2O)[C@@H]1O` [SPINASAPONIN A METHYL ESTER], the IC50 worked out at 4.52 µM with MCF7 [1], 8.36 µM with HepG2 and 15.7 µM in the test with K562.
`COC(=O)[C@H]1O[C@@H](O[C@H]2CC[C@]3(C)[C@H]4C(=O)C=C5[C@@H]6C[C@@](C)(C(=O)O)CC[C@]6(C)CC[C@@]5(C)[C@]4(C)CC[C@H]3C2(C)C)[C@H](O)[C@@H](O[C@@H]2O[C@H](CO)[C@H](O)[C@H](O)[C@H]2O)[C@@H]1O`: the IC50 in the test with MCF7 [1], in the test on HepG2 and with K562 was > 60 µM throughout.
As for `COC(=O)[C@H]1O[C@@H](O[C@H]2CC[C@]3(C)[C@H]4C(=O)C=C5[C@@H]6C[C@@](C)(C(=O)O)CC[C@]6(C)CC[C@@]5(C)[C@]4(C)CC[C@H]3C2(C)C)[C@H](O)[C@@H](O[C@@H]2O[C@H](CO)[C@@H](O)[C@H](O)[C@H]2O)[C@@H]1O`, the IC50 in the test with MCF7 [1], in the test with HepG2 and in the test on K562 was > 60 µM in each case.
In the case of `COC(=O)[C@H]1O[C@@H](O[C@H]2CC[C@]3(C)[C@H]4CC=C5[C@@H]6[C@@H](C)[C@H](C)CC[C@]6(C(=O)O)CC[C@@]5(C)[C@]4(C)CC[C@H]3C2(C)C)[C@H](O)[C@@H](O[C@@H]2O[C@H](CO)[C@@H](O)[C@H](O)[C@H]2O)[C@@H]1O`, the values for the IC50 in the test on MCF7 [1], in the test with HepG2 and with K562 were 23.3 µM, 44.7 µM and > 60 µM, respectively.
For the compound `COC(=O)[C@H]1O[C@@H](O[C@H]2CC[C@]3(C)[C@H]4CC=C5[C@@H]6CC(C)(C)CC[C@]6(C(=O)O)CC[C@@]5(C)[C@]4(C)CC[C@H]3C2(C)C)[C@H](O)[C@@H](O[C@@H]2O[C@H](CO)[C@H](O)[C@H](O)[C@H]2O)[C@@H]1O`, the Activity in the test on MCF7 [2] worked out at 4.33%; with MCF7 [7] it was 8.43%; in the test on MCF7 [8] it was 2.2%; with MCF7 [9], 2.42%; in the test on MCF7 [10], 18.44%; in the test with MCF7 [11], 2.84%. Moreover, the Activity is 3.26% in the test with MCF7 [12]; 29.61% with MCF7 [13]; 18.81% with MCF7 [14]; “Dose-dependent effect” with MCF7 [15]; “Dose-dependent effect” in the test on MCF7 [16]. The IC50 with MCF7 [1] was found to be 1.87 µM; with HepG2 it was 2.24 µM; with K562 it was 2.36 µM. The outcome with MCF7 [3], in the test with MCF7 [4], in the test on MCF7 [5] and in the test on MCF7 [6] was Active.
